Assays:
BEL-7404 tumor cell line = assay: MTT cytotoxicity assay, BEL-7404; type: cell-based, human; details: for IC50: 48 h, MTT, mean ± SD; for inhibition at 20 µM: read-out: Inhibition rate BEL-7404
Method: (§1) The cytotoxicities of compounds 1–5 against the human tumor cell lines BEL-7404, HepG2, NCI-H460, T-24 and A549, as well as human normal liver cell line HL-7702, were tested by the MTT assay. Cisplatin was also tested for comparison.
(§2) All the cells were maintained in DMEM (Dulbecco’s Modified Eagle Medium) supplemented with 10% fetal calf serum, 100 units/mL ampicillin and […] streptomycin sulfate at 37 °C in a humidified atmosphere under 5% CO2. Compounds 1–5 were dissolved in DMSO at a concentration of 2.0 mM stock solution. The stock was diluted by PBS to the required concentration immediately before use.
(§3) Cisplatin was prepared according to a literature procedure. The cells were all grown in 96-well, flat-bottomed microtiter plates. Compounds 1–5 and cisplatin were dissolved in the culture medium (containing 1% DMSO) to a concentration of 100 μg/mL. The resultant solutions were subsequently added to a set of wells. The wells for control contained the supplemented medium with 1% DMSO. The microtiter plates were incubated at 37 °C in a humidified atmosphere of 5% CO2/95% air for a further 48 h. At the end of each incubation period, the 3-(4,5-dimethylthiazol-2-yl)-2,5-diphenyltetrazolium bromide (MTT) solution (10 μL, 5 mg/mL) was added into each well and the cultures were further incubated for 6 h under the same conditions. After the removal of the supernatant, DMSO (100 μL) was added to dissolve the formazan crystals. The absorbance of the solution was read by an enzyme-labeled microplate reader with 490/630 nm double wavelength measurement. The cytotoxicity was evaluated based on the percentage of cell survival in a dose-dependent manner relative to the negative control. The final IC50 values were calculated by the Bliss method (n = 5). All tests were repeated in at least three independent trials.

NCI-H460 tumor cell line = assay: MTT cytotoxicity assay, NCI-H460; type: cell-based, human; details: for IC50: 48 h, MTT, mean ± SD; for inhibition at 20 µM: read-out: Inhibition rate NCI-H460
Method: as §1, §2, §3

[1] = tested on: normal liver cell line HL-7702; assay: MTT cytotoxicity assay, HL-7702; type: cell-based, human; details: normal liver cells; for IC50: 48 h, MTT, mean ± SD; for inhibition at 20 µM: read-out: Inhibition rate HL-7702
Method: as §1, §2, §3

T-24 tumor cell line = assay: MTT cytotoxicity assay, T-24; type: cell-based, human; details: for IC50: 48 h, MTT, mean ± SD; for inhibition at 20 µM: read-out: Inhibition rate T-24
Method: as §1, §2, §3

A549 tumor cell line = assay: MTT cytotoxicity assay, A549; type: cell-based; details: Homo sapiens; for IC50: 48 h, MTT, mean ± SD; for inhibition at 20 µM: complexes 1-5 at 20 μM, incubation 48 h, read-out: Inhibition rate A549
Method: as §1, §2, §3

HepG2 tumor cell line = assay: MTT cytotoxicity assay, HepG2; type: cell-based, human; details: for IC50 / inhibition at 20 µM: Homo sapiens, HepG2; for IC50: 48 h, mean ± SD; for IC50 / Growth inhibition on HepG2 cell lines (in words): MTT; for inhibition at 20 µM: read-out: Inhibition rate HepG2; for Cytotoxicity toward HepG2 enhanced compared with normal liver cell HL-7702: ratio of IC50 HL-7702 to IC50 HepG2
Method: as §1, §2, §3

[2] = Homo sapiens, BEL-7404, complexes 1-5 at 20 μM, incubation 48 h
[3] = Homo sapiens, NCI-H460, complexes 1-5 at 20 μM, incubation 48 h
[4] = Homo sapiens, L02, complexes 1-5 at 20 μM, incubation 48 h
[5] = Homo sapiens, complexes 1-5 at 20 μM, incubation 48 h
[6] = complexes 1-5 at 20 μM, incubation 48 h

COC(=O)C1=NN(c2cccc(Br)n2)C2(C(C(=O)O)=NN(c3cccc(Br)n3)C2O)C1(C(=O)OC)c1c(C(=O)OC)nn(-c2cccc(Br)n2)c1O (stereo not shown) [Compound 5, 1,8-Bis(6-bromopyridin-2-yl)-4-(1-(6-bromopyridin-2-yl)-5-hydroxy-3-(methoxycarbonyl)-1H-pyrazol-4-yl)-9-hydroxy-3,4-bis(methoxycarbonyl)-1,2,7,8-tetraazaspiro[4.4]nona-2,6-diene-6-carboxylic acid]
IC50 (BEL-7404 tumor cell line; Homo sapiens, BEL-7404): 84.3 ± 1.01 µM | inhibition at 20 µM (BEL-7404 tumor cell line; [2]): 27.2 ± 0.94% | IC50 (NCI-H460 tumor cell line; Homo sapiens, NCI-H460): 94.56 ± 0.41 µM | inhibition at 20 µM (NCI-H460 tumor cell line; [3]): 25.4 ± 0.34% | IC50 ([1]; Homo sapiens, L02): 102.3 ± 0.85 µM | inhibition at 20 µM [1, 4]: 26.9 ± 0.79% | IC50 (T-24 tumor cell line; Homo sapiens): 76 ± 1.16 µM | inhibition at 20 µM (T-24 tumor cell line; [5]): 35.9 ± 1.26% | IC50 (A549 tumor cell line): 77.56 ± 0.72 µM | inhibition at 20 µM (A549 tumor cell line): 29.4 ± 0.65% | IC50 (HepG2 tumor cell line): 175.2 ± 1.1 µM | inhibition at 20 µM (HepG2 tumor cell line; [6]): 19.5 ± 1.05%

COC(=O)C1=NN(c2cccc(Br)n2)C(=O)C1(c1c(C(=O)OC)nn(-c2cccc(Br)n2)c1O)c1c(C(=O)OC)nn(-c2cccc(Br)n2)c1O [Compound 3, Trimethyl 1,1′,1′′-tris(6-bromo-2-pyridinyl)-5,5′′-dihydroxy-5′-oxo-1′,5′-dihydro-1H,1′′H-4,4′: 4′,4′′-terpyrazole-3,3′,3′′-tricarboxylate]
IC50 (BEL-7404 tumor cell line; Homo sapiens, BEL-7404): 112 ± 2.78 µM | inhibition at 20 µM (BEL-7404 tumor cell line; [2]): 24.6 ± 0.75% | IC50 (NCI-H460 tumor cell line; Homo sapiens, NCI-H460): 38 ± 0.89 µM | inhibition at 20 µM (NCI-H460 tumor cell line; [3]): 42.5 ± 2.27% | IC50 ([1]; Homo sapiens, L02): 151 ± 3.06 µM | inhibition at 20 µM [1, 4]: 22.2 ± 1.05% | IC50 (T-24 tumor cell line; Homo sapiens): 85.38 ± 0.67 µM | inhibition at 20 µM (T-24 tumor cell line; [5]): 32 ± 0.89% | IC50 (A549 tumor cell line): 33.6 ± 1.07 µM | inhibition at 20 µM (A549 tumor cell line): 33.3 ± 2.51% | IC50 (HepG2 tumor cell line): 54.7 ± 0.81 µM | inhibition at 20 µM (HepG2 tumor cell line; [6]): 41 ± 1.27% | Cytotoxicity toward HepG2 enhanced compared with normal liver cell HL-7702 (HepG2 tumor cell line): 2.76 times

COC(=O)C1=NN(c2cccc(Br)n2)C2(C(C(=O)OC)=NN(c3cccc(Br)n3)C2O)C1(C(=O)OC)c1c(C(=O)OC)nn(-c2cccc(Br)n2)c1O (stereo not shown) [Compound 4, Trimethyl-1,8-bis(6-bromopyridin-2-yl)-4-(1-(6-bromopyridin-2-yl)-5-hydroxy-3-(methoxycarbonyl)-1H-pyrazol-4-yl)-9-hydroxy-1,2,7,8-tetraazaspiro[4.4]nona-2,6-diene-3,4,6-tricarboxylate]
IC50 (BEL-7404 tumor cell line; Homo sapiens, BEL-7404): 41.81 ± 0.37 µM | inhibition at 20 µM (BEL-7404 tumor cell line; [2]): 39.6 ± 1.43% | IC50 (NCI-H460 tumor cell line; Homo sapiens, NCI-H460): 66.48 ± 0.57 µM | inhibition at 20 µM (NCI-H460 tumor cell line; [3]): 33.6 ± 1.38% | IC50 ([1]; Homo sapiens, L02): 96.14 ± 0.49 µM | inhibition at 20 µM [1, 4]: 35.1 ± 1.34% | IC50 (T-24 tumor cell line; Homo sapiens): 42.9 ± 1.41 µM | inhibition at 20 µM (T-24 tumor cell line; [5]): 43.2 ± 1.15% | IC50 (A549 tumor cell line): 28.1 ± 1.01 µM | inhibition at 20 µM (A549 tumor cell line): 40.2 ± 0.44% | IC50 (HepG2 tumor cell line): 10.7 ± 0.38 µM | inhibition at 20 µM (HepG2 tumor cell line; [6]): 53.3 ± 0.92% | Increase in HepG2 cytotoxicity compared to the free ligand 5 (HepG2 tumor cell line; IC50 of 5 relative to IC50 of 4, HepG2): approximately 16.44 fold | Cytotoxicity toward HepG2 enhanced compared with normal liver cell HL-7702 (HepG2 tumor cell line): 9.02 times

COC(=O)c1cc(O)n(-c2cccc(Br)n2)n1 [Compound 2, Methyl 1-(6-bromo-2-pyridinyl)-5-hydroxy-1H-pyrazole-3-carboxylate]
IC50 (BEL-7404 tumor cell line; Homo sapiens, BEL-7404): 125 ± 1.87 µM | inhibition at 20 µM (BEL-7404 tumor cell line; [2]): 20.2 ± 1.18% | IC50 (NCI-H460 tumor cell line; Homo sapiens, NCI-H460): 40.7 ± 0.54 µM | inhibition at 20 µM (NCI-H460 tumor cell line; [3]): 38 ± 0.62% | IC50 ([1]; Homo sapiens, L02): 118 ± 3.34 µM | inhibition at 20 µM [1, 4]: 24.7 ± 0.59% | IC50 (T-24 tumor cell line; Homo sapiens): 46.2 ± 0.87 µM | inhibition at 20 µM (T-24 tumor cell line; [5]): 42.5 ± 0.96% | IC50 (A549 tumor cell line): 44.8 ± 1.12 µM | inhibition at 20 µM (A549 tumor cell line): 22.4 ± 1.74% | IC50 (HepG2 tumor cell line): 29.8 ± 0.91 µM | inhibition at 20 µM (HepG2 tumor cell line; [6]): 43 ± 0.74% | Growth inhibition on HepG2 cell lines (in words) (HepG2 tumor cell line): weakly growth inhibition | Cytotoxicity toward HepG2 enhanced compared with normal liver cell HL-7702 (HepG2 tumor cell line): 3.98 times

COC(=O)c1cc(OC(C)=O)n(-c2cccc(Br)n2)n1 [Compound 1, Methyl 5-(acetyloxy)-1-(6-bromo-2-pyridinyl)-1H-pyrazole-3-carboxylate]
IC50 (BEL-7404 tumor cell line; Homo sapiens, BEL-7404): 66.5 ± 1.13 µM | inhibition at 20 µM (BEL-7404 tumor cell line; [2]): 38.2 ± 1.99% | IC50 (NCI-H460 tumor cell line; Homo sapiens, NCI-H460): 109 ± 1.65 µM | inhibition at 20 µM (NCI-H460 tumor cell line; [3]): 34 ± 1.76% | IC50 ([1]; Homo sapiens, L02): 111 ± 2.84 µM | inhibition at 20 µM [1, 4]: 26.5 ± 0.42% | IC50 (T-24 tumor cell line; Homo sapiens): 70.5 ± 1.33 µM | inhibition at 20 µM (T-24 tumor cell line; [5]): 37.6 ± 1.72% | IC50 (A549 tumor cell line): 37.6 ± 1.03 µM | inhibition at 20 µM (A549 tumor cell line): 31.1 ± 1.39% | IC50 (HepG2 tumor cell line): 37.1 ± 0.54 µM | inhibition at 20 µM (HepG2 tumor cell line; [6]): 47.21 ± 0.44% | Growth inhibition on HepG2 cell lines (in words) (HepG2 tumor cell line): weakly growth inhibition | Cytotoxicity toward HepG2 enhanced compared with normal liver cell HL-7702 (HepG2 tumor cell line): 2.98 times

N.N.[Cl][Pt][Cl] [Cisplatin, reference compound]
IC50 (BEL-7404 tumor cell line): 12.4 ± 0.38 µM | Inhibition rate BEL-7404 (BEL-7404 tumor cell line; [6]): 55.15±1.18 | IC50 (NCI-H460 tumor cell line): 18.9 ± 1.02 µM | Inhibition rate NCI-H460 (NCI-H460 tumor cell line; [6]): 50.88±3.69 | IC50 [1]: 5.63 ± 0.32 µM | Inhibition rate HL-7702 [1, 6]: 73.58±2.30 | IC50 (T-24 tumor cell line): 28.1 ± 1.88 µM | Inhibition rate T-24 (T-24 tumor cell line; [6]): 47.58±2.65 | Inhibition rate HepG2 (HepG2 tumor cell line; [6]): 60.63±0.99
